Reference: ChEMBL document CHEMBL1153221, “The identification of structurally novel, selective, orally bioavailable positive modulators of mGluR2” (Bioorg Med Chem Lett, 2010)
In brackets after ≈: the same amount, converted by molar mass. Activity calls are given as the source filed them. The rule behind the calls is not given here.

What was measured:
[1] = target: T1, Metabotropic glutamate receptor 2 (Homo sapiens, UniProt Q14416); assay: Positive modulation of human mGluR2 expressed in CHO cells co-expressing Ga16 G-protein assessed as glutamate-induced response by FLIPR assay; type: cell-based
Target sequence in this assay (Q14416 whole entry): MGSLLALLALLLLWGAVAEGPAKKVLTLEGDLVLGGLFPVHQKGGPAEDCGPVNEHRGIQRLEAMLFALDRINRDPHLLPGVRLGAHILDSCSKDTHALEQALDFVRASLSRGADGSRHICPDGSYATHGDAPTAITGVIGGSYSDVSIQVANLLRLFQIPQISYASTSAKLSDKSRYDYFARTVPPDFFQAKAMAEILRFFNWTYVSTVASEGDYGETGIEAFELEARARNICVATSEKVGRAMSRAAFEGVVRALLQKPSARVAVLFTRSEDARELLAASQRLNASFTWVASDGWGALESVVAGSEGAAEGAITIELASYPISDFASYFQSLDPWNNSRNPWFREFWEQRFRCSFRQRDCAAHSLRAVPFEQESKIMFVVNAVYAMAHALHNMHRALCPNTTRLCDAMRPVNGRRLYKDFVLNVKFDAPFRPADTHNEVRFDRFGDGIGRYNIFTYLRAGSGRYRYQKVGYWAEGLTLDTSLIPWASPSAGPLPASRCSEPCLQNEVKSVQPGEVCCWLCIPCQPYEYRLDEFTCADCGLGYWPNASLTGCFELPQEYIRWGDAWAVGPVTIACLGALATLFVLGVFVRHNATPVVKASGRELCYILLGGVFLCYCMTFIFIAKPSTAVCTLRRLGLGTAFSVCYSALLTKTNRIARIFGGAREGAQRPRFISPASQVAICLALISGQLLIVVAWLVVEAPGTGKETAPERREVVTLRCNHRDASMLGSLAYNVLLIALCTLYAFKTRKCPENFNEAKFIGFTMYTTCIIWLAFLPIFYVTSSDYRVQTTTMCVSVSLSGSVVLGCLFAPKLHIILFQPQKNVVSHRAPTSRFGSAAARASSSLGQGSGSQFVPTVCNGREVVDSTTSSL

[2] = target: T1, Metabotropic glutamate receptor 2; assay: Positive modulation of human mGluR2 expressed in CHO cells co-expressing Ga16 G-protein assessed as glutamate-induced response by FLIPR assay relative to glutamate; type: cell-based
Target sequence in this assay (Q14416 19-872 limits assumed): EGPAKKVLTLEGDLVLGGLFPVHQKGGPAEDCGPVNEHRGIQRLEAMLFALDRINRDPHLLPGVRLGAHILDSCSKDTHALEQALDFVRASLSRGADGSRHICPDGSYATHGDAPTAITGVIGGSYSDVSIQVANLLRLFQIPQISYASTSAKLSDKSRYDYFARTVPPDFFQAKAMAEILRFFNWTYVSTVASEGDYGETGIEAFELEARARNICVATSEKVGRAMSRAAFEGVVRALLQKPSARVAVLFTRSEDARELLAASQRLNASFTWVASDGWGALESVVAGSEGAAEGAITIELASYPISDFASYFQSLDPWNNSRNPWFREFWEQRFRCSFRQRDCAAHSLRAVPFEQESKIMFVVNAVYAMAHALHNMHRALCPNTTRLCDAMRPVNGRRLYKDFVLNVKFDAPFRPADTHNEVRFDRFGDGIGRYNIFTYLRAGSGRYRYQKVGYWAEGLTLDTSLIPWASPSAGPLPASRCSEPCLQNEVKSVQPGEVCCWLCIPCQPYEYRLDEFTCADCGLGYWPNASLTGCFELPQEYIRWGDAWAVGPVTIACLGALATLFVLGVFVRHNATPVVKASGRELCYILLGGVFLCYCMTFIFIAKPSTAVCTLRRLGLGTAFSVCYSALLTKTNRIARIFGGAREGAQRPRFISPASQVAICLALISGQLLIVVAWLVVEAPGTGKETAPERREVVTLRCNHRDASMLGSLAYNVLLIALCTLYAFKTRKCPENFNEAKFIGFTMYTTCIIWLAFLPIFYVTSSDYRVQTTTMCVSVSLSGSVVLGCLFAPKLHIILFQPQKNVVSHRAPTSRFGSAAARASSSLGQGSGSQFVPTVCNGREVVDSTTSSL

[3] = target: T1, Metabotropic glutamate receptor 2; assay: Agonist activity at human mGluR2 expressed in CHO cells co-expressing Ga16 G-protein assessed as glutamate-induced response by FLIPR assay; type: functional, cell-based
Target sequence in this assay (Q14416 whole entry): as the sequence (Q14416 whole entry) above

[4] = target: D(2) dopamine receptor (Homo sapiens, UniProt P14416); assay: Antagonist activity at human D2 receptor expressed in CHO cells co-expressing G0 by [35S]GTPgammaS binding assay; type: functional, cell-based
[5] = target: D(3) dopamine receptor (Homo sapiens, UniProt P35462); assay: Antagonist activity at human D3 receptor expressed in CHO cells co-expressing G0 by [35S]GTPgammaS binding assay; type: functional, cell-based
[6] = target: T2, D(4) dopamine receptor (Homo sapiens, UniProt P21917); assay: Antagonist activity at human D4 receptor expressed in HEK293 cells co-expressing Gqo5 G-protein by FLIPR assay; type: functional, cell-based
T2 sequence (P21917 whole entry): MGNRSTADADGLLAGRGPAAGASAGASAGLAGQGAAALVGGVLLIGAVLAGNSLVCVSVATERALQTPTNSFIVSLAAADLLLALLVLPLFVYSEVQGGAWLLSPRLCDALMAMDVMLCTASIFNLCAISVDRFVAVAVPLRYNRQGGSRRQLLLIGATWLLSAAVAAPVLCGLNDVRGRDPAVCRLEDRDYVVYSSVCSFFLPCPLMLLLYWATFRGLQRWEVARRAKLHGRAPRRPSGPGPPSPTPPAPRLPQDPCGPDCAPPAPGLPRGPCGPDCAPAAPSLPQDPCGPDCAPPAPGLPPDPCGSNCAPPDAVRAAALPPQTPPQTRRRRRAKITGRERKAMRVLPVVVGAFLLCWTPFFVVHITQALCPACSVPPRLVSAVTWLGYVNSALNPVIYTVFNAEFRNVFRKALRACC

[7] = target: T3, Metabotropic glutamate receptor 1 (Homo sapiens, UniProt Q13255); assay: Agonist activity at mGluR1; type: functional
[8] = target: T3, Metabotropic glutamate receptor 1; assay: Antagonist activity at mGluR1; type: functional
[9] = target: T4, Metabotropic glutamate receptor 5 (Homo sapiens, UniProt P41594); assay: Agonist activity at mGluR5; type: functional
[10] = target: T4, Metabotropic glutamate receptor 5; assay: Antagonist activity at mGluR5; type: functional
[11] = target: T4, Metabotropic glutamate receptor 5; assay: Positive modulation of mGluR5
[12] = Solubility of the compound; type: physicochemical
[13] = target: Metabotropic glutamate receptor 4 (Homo sapiens) (UniProt Q14833); assay: Agonist activity at mGluR4; type: functional
[14] = target: Metabotropic glutamate receptor 4 (Homo sapiens) (UniProt Q14833); assay: Antagonist activity at mGluR4; type: functional
[15] = target: Metabotropic glutamate receptor 4 (Homo sapiens) (UniProt Q14833); assay: Positive modulation of mGluR4
[16] = target: T3, Metabotropic glutamate receptor 1; assay: Positive modulation of mGluR1
Target sequence in this assay (Q13255 19-1194 limits assumed): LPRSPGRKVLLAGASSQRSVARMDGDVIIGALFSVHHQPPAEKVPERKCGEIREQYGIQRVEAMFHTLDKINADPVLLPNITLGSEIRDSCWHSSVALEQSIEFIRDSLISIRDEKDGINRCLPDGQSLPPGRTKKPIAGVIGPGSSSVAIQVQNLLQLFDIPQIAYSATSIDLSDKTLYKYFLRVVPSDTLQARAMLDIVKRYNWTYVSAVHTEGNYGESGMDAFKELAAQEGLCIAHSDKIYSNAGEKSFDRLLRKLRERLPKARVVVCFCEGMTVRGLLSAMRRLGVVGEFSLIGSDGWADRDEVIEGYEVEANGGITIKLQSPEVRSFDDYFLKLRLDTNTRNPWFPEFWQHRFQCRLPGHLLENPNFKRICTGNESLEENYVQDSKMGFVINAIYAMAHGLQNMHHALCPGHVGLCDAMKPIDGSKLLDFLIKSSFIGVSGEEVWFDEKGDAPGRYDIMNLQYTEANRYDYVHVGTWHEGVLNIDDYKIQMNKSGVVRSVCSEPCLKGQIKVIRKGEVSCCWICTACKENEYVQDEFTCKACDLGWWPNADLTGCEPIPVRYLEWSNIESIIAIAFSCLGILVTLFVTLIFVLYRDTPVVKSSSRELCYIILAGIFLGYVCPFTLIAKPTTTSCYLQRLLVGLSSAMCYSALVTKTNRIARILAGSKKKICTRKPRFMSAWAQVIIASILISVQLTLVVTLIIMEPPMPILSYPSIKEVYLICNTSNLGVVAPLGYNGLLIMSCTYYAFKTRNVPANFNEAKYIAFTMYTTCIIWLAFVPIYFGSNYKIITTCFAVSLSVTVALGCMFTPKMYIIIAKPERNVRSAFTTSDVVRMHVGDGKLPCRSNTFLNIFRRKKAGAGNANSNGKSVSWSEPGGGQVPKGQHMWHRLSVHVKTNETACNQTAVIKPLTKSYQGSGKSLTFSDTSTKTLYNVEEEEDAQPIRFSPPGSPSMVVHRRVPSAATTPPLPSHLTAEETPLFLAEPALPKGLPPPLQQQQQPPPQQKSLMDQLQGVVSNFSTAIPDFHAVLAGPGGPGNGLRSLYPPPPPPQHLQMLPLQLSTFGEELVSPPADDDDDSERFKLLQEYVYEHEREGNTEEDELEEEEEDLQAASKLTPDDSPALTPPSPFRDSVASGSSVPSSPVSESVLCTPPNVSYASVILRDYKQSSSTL

[17] = Inhibition of field excitatory postsynaptic potential in Wistar rat medial perforant path dentate gyrus after 20 mins by electrophysiological assay; type: functional, tissue-based
[18] = Inhibition of field excitatory postsynaptic potential in Wistar rat medial perforant path dentate gyrus after 20 mins by electrophysiological assay in presence of 10 uM GSK1331268

Metabotropic glutamate receptor 4 (Homo sapiens), sequence (Q14833 whole entry): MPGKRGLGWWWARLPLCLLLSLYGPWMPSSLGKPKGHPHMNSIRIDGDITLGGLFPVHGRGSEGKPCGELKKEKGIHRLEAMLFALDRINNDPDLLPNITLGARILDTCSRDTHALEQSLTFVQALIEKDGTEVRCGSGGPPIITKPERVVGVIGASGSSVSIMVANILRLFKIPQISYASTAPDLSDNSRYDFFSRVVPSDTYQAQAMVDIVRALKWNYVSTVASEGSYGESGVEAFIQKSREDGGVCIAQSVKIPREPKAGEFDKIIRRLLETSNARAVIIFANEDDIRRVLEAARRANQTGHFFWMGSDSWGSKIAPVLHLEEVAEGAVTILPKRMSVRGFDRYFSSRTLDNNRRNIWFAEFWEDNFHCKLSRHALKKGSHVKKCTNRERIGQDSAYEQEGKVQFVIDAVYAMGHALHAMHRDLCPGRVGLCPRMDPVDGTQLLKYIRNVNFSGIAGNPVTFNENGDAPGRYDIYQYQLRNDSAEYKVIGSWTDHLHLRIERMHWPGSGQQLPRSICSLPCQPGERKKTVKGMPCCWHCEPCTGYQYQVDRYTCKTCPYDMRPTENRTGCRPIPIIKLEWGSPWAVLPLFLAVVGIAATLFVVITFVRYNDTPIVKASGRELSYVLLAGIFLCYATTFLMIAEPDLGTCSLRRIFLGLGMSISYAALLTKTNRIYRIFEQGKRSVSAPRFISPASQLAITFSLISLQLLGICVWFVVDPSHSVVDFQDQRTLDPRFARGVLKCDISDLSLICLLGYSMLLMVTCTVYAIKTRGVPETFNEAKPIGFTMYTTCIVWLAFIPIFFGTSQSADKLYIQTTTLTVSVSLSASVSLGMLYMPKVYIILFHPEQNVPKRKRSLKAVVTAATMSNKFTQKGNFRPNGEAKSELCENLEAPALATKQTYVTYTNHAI
D(2) dopamine receptor, sequence (P14416 whole entry): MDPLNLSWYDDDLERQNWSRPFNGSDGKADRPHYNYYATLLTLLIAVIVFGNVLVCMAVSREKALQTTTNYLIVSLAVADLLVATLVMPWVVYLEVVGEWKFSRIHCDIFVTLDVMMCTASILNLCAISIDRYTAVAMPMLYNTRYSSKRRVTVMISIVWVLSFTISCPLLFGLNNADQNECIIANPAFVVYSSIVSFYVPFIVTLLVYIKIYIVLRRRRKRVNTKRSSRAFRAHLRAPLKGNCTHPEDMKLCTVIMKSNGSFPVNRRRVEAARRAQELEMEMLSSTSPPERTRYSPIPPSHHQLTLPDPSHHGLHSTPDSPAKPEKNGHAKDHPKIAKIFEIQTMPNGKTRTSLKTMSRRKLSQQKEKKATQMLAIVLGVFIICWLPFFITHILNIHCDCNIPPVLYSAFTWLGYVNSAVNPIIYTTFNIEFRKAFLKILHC
D(3) dopamine receptor, sequence (P35462 whole entry): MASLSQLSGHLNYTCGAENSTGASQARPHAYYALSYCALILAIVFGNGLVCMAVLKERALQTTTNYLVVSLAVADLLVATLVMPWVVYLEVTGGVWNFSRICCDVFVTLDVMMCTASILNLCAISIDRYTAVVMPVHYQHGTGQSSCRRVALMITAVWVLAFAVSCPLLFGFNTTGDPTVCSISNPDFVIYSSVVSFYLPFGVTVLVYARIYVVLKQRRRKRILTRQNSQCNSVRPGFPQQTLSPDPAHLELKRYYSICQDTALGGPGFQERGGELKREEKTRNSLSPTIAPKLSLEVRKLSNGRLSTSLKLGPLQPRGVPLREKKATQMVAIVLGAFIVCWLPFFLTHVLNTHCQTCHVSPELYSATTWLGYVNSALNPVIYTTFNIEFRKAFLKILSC

| EC50 [1] | Emax [2] | EC50 [3] | Ki [4] | Ki [5] | Ki [6] | Compound | also measured |
| --- | --- | --- | --- | --- | --- | --- | --- |
| 79.4 nM | 91% | 5010 nM | 15.8 nM | 316 nM | 63.1 nM | Cn1c(CN2CCC(c3ccc(Cl)cc3)CC2)nc2ccccc21 | – |
| 200 nM | 84% | 6310 nM | > 10000 nM | > 10000 nM | 398 nM | Cn1c(CN2CCN(c3ccc(C(F)(F)F)cc3)CC2)nc2ccccc21 | – |
| 794 nM | – | > 15800 nM | > 10000 nM | > 10000 nM | 126 nM | Cn1c(CN2CCN(c3ccc(Cl)cc3)CC2)nc2ccccc21 | – |
| > 3160 nM | – | > 15800 nM | – | – | – | Cn1c(CN2CCC(c3ccccn3)CC2)nc2ccccc21 | – |
| 63.1 nM | – | – | – | – | – | CCn1c(CN2CCN(c3ncc(C(F)(F)F)cc3Cl)CC2)nc2ccccc21 | – |
| 12600 nM | – | – | – | – | – | Clc1cnc(N2CCN(Cc3nc4ccccc4[nH]3)CC2)nc1 | – |
| 316 nM | 88% | 2000 nM | > 10000 nM | > 10000 nM | 794 nM | Cn1c(CN2CCN(c3nc4ccccc4s3)CC2)nc2ccccc21 | – |
| 39.8 nM | 70% | 631 nM | 794 nM | 1580 nM | 2510 nM | Cn1c(CN2CCC(c3ncc(C(F)(F)F)cc3Cl)CC2)nc2ccccc21 | – |
| 126 nM | – | 3980 nM | 39.8 nM | – | – | Cn1c(CN2CCC(c3ccccc3F)CC2)nc2ccccc21 | EC50 [7]: > 15800 nM; EC50 [8]: > 15800 nM; EC50 [9]: > 15800 nM; EC50 [10]: > 15800 nM; EC50 [11]: > 15800 nM; solubility [12]: 31 µg/mL (≈ 95.9 µM) |
| 79.4 nM | 71% | 2000 nM | 5010 nM | 5010 nM | 631 nM | Cn1c(CN2CCN(c3ncc(C(F)(F)F)cc3Cl)CC2)nc2ccccc21 | Activity [7]: inactive; Activity [8]: inactive; Activity [9]: inactive; Activity [10]: inactive; Activity [11]: inactive; Activity [13]: inactive; Activity [14]: inactive; Activity [15]: inactive; Activity [16]: inactive |
| 15800 nM | 100% | – | – | – | – | Cn1c(CN2CCN(c3ccccn3)CC2)nc2ccccc21 | – |
| 126 nM | 69% | 1260 nM | > 10000 nM | > 10000 nM | 2510 nM | Cn1c(CN2CCN(c3ncc(Cl)cn3)CC2)nc2ccccc21 | Activity [7]: inactive; Activity [8]: inactive; Activity [9]: inactive; Activity [10]: inactive; Activity [11]: inactive; Activity [13]: inactive; Activity [14]: inactive; Activity [15]: inactive; Activity [16]: inactive |
| 126 nM | – | – | – | – | – | Clc1cnc(N2CCN(Cc3nc4ccccc4n3Cc3ccccc3)CC2)nc1 | – |
| 126 nM | – | – | – | – | – | FC(F)(F)c1cnc(N2CCN(Cc3nc4ccccc4n3Cc3ccccc3)CC2)c(Cl)c1 | – |
| 158 nM | 76% | 3160 nM | 398 nM | > 10000 nM | 7.94 nM | Cn1c(CN2CCC(c3nc4ccccc4s3)CC2)nc2ccccc21 | – |
| 2510 nM | – | – | – | – | – | CCCn1c(CN2CCN(c3ncc(C(F)(F)F)cc3Cl)CC2)nc2ccccc21 | – |
| 501 nM | 81% | 6310 nM | > 10000 nM | > 10000 nM | 1000 nM | Cn1c(CN2CCN(c3ccc(C(F)(F)F)cn3)CC2)nc2ccccc21 | – |
| 100 nM | 94% | 2510 nM | 126 nM | > 10000 nM | 251 nM | Cn1c(CN2CCC(c3cccc(C(F)(F)F)c3)CC2)nc2ccccc21 | – |
| 126 nM | – | – | – | – | – | Cn1c(CN2CCN(c3ncc(C(F)(F)F)cc3Cl)CC2)nc2ccc(F)cc21 | – |
| 200 nM | – | – | – | – | – | Cn1c(CN2CCN(c3ncc(C(F)(F)F)cc3Cl)CC2)nc2cc(F)ccc21 | – |

More lines, now with the values behind:

| Compound | EC50 [1] | Emax [2] | EC50 [3] | Ki [4] | Ki [5] | Ki [6] | also measured |
| --- | --- | --- | --- | --- | --- | --- | --- |
| COCCn1c(CN2CCN(c3ncc(Cl)cn3)CC2)nc2ccccc21 | 501 nM | – | – | – | – | – | – |
| Cn1c(CN2CCC(c3cccc(Cl)c3)CC2)nc2ccccc21 | 100 nM | 92% | 3980 nM | 39.8 nM | 1580 nM | 251 nM | – |
| Cn1c(CN2CCC(c3ccccc3)CC2)nc2ccccc21 | 200 nM | 89% | 6310 nM | 25.1 nM | 126 nM | 100 nM | – |
| Cn1c(CN2CCN(c3ccccc3C(F)(F)F)CC2)nc2ccccc21 | 316 nM | 84% | > 15800 nM | – | – | 631 nM | – |
| Cn1c(CN2CCN(c3ccc(Cl)cc3F)CC2)nc2ccccc21 | 126 nM | 69% | 2510 nM | – | – | 251 nM | – |
| Cn1c(CN2CCC(c3ccccc3C(F)(F)F)CC2)nc2ccccc21 | 316 nM | 94% | 6310 nM | > 3160 nM | 501 nM | – | – |
| COCCn1c(CN2CCN(c3ncc(C(F)(F)F)cc3Cl)CC2)nc2ccccc21 | 158 nM | – | – | – | – | – | – |
| Cn1c(CN2CCN(c3ccccc3)CC2)nc2ccccc21 | 5010 nM | 100% | > 15800 nM | – | – | – | – |
| Cn1c(CN2CCC(c3ccc(C(F)(F)F)cc3)CC2)nc2ccccc21 | 100 nM | 110% | 2000 nM | 251 nM | > 10000 nM | 126 nM | – |
| FC(F)(F)c1cnc(N2CCN(Cc3nc4ccccc4[nH]3)CC2)c(Cl)c1 | 12600 nM | – | – | – | – | – | – |
| Cn1c(CN2CCN(c3ncc(C(F)(F)F)cc3Cl)CC2)nc2cc(C#N)ccc21 | 50.1 nM | – | – | – | – | – | – |
| CCCn1c(CN2CCN(c3ncc(Cl)cn3)CC2)nc2ccccc21 | 794 nM | – | – | – | – | – | – |
| Cn1c(CN2CCN(c3ccc(C#N)cc3)CC2)nc2ccccc21 | > 12600 nM | – | – | – | – | – | – |
| Cn1c(CN2CCN(c3ccccc3F)CC2)nc2ccccc21 | 794 nM | 64% | 6310 nM | – | – | – | – |
| Cn1c(CN2CCC(c3nsc4ccccc34)CC2)nc2ccccc21 | 200 nM | 84% | 2510 nM | 79.4 nM | 3980 nM | 200 nM | – |
| CCn1c(CN2CCN(c3ncc(Cl)cn3)CC2)nc2ccccc21 | 158 nM | – | – | – | – | – | – |
| Cn1c(CN2CCN(c3ncc(C(F)(F)F)cc3Cl)CC2)nc2cc(C(F)(F)F)ccc21 | 2000 nM | – | – | – | – | – | – |
| COc1ccccc1Oc1ccc(N(Cc2cccnc2)S(=O)(=O)CC(F)(F)F)cc1 | – | – | – | – | – | – | pEC50 [17]: 6.864; pEC50 [18]: 7.364 |
